{
  "source": "patent US20210024975A1",
  "about": "“METHODS FOR IDENTIFYING INHIBITORS OF LIPID A DEACYLASE AND […] RELATED TO SAME” (UNIVERSITY OF WASHINGTON, priority 2019, published 2021)",
  "system": "P. gingivalis 33277 mutants",
  "assay": "polymixin B sensitivity of P. gingivalis strains",
  "type": "cell-based, Porphyromonas gingivalis",
  "conditions": "J5-c5 transposon mutant; similar to the wild-type bacterium",
  "data": [
    {"substance": "polymixin B", "values": [
      {"measurement": "polymixin B sensitivity of J5-c5 mutants", "result": "resistance"}
    ]}
  ]
}
